According to patent publication US12083181B2, “Bi-functional molecules to degrade circulating proteins” (Yale University, priority 2018, dated 2024):

Assays:
rhuMIF [1] = molecular target: T1, rhuMIF (Homo sapiens, UniProt P14174); experiment: Depletion of human MIF from supernatant of cultured HepG2 cells, sandwich ELISA; format: cell-based; conditions: 100 nM huMIF, after 24 hours
T1 sequence (P14174 2-115 limits assumed): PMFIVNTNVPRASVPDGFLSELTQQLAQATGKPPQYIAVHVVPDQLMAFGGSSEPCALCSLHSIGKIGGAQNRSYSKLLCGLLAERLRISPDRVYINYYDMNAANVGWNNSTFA
Procedure: In an experiment the results of which are presented in FIG. 3, bifunctional molecules were able to deplete human MIF from the supernatant of culture HepG2 cells. Briefly, human MIF (100 nM) was added to cell culture media in the presence of negative control MIF inhibitor 3w as well as bifunctional molecules MIF-NVS-PEGn-GN3, MIF-GN3, MIF-PEGn-Gn3, MIF-AcF3-1, MIF-AcF3-2, and MIF-AcF3-3. All molecules utilized a known MIF-binding ligand. Experiments were performed in 96 well plates (approximate surface area 0.3 cm^2). HepG2 cells were grown to 90% confluency in RPMI media, then washed with PBS (2×) and treated with serum-free media (optimem+0.1% BSA, +Pen/Strep) containing 100 nM huMIF (Cayman Chemical) and compounds (when applicable). Compounds were diluted from 1 mM stock solutions in DMSO. After 24 hours, a sample of the supernatant (2 uL) was collected, diluted 1:100, and analyzed for MIF content by sandwich ELISA (and incubated for 24 hours in the presence or absence of compound). Remaining MIF levels were determined by sandwich ELISA (biolegend monoclonal anti-MIF and biotinylated anti-MIF antibodies). Data represents the average of at least 3 biological replicates, and error bars represent a standard deviation. After 24 hours, up to 95.3% of the MIF had been depleted from cell culture media (in the case of MIF-AcF3-3).

rhuMIF [2] = molecular target: T1, rhuMIF; experiment: Trafficking of MIF internalized by HepG2 cells to lysosomes, immunofluorescence; format: cell-based; parameters: purchased Cayman Chemical; conditions: 100 nM rhuMIF, 200 nM compound, 12 hours
Procedure: In this experiment, cells were incubated with rhuMIF (Cayman) at a concentration of 100 nM with 200 nM MIF-GN3.

rhuMIF [3] = molecular target: T1, rhuMIF; experiment: Depletion of injected human MIF from mice, serum sandwich ELISA; format: in vivo; conditions: nude mice injected with 5 μg recombinant human MIF
Procedure: Human MIF has a half-life of approximately 40 minutes in mice. In this experiment, human recombinant MIF (Cayman chemical) was co-injected into mice with an anti-DNP IgG, which was used as an injection positive control. In particular, nude mice were injected with 5 μg recombinant human MIF and 200 μg anti-DNP IgG as an injection control (FIG. 4). MIF-GN3 was then injected at the concentration shown and blood drawn every twenty minutes over the course of two hours. Serum was diluted 1:100 and analyzed for MIF content by sandwich ELISA (biolegend monoclonal anti-MIF and biotinylated anti-MIF antibodies).

[4] = test system: PC3 human prostate cancer cells; experiment: Mouse model of prostate cancer, tumor growth; format: in vivo; conditions: nude mice engrafted with PC3 cells, treatment initiated immediately
Description: In this experiment, nude mice were engrafted with PC3 human prostate cancer cells. Treatment was then initiated immediately with either a non-bifunctional MIF inhibitor (3w), an anti-MIF antibody, or MIF-GN3.

MIF depleted from cell culture media (rhuMIF [1]) [%] | trafficking of internalized MIF to lysosomes (rhuMIF [2]) | serum huMIF levels (rhuMIF [3]; blood drawn over two hours, PBS control up to 150 ng/ml) | decrease in huMIF levels (rhuMIF [3]; versus PBS) | SMILES | tumor growth [4]
95.3 |  |  |  | O=C(CCOCC(COCCC(=O)NCCOCCOCCOCCOC[C@@]12CO[C@@H](O1)[C@H](NC(=O)C(F)(F)F)[C@@H](O)[C@H]2O)(COCCC(=O)NCCOCCOCCOCCOC[C@@]12CO[C@@H](O1)[C@H](NC(=O)C(F)(F)F)[C@@H](O)[C@H]2O)NC(=O)CCCOc1ccc2nc(-c3cn(-c4ccc(O)c(F)c4)nn3)ccc2c1)NCCOCCOCCOCCOC[C@@]12CO[C@@H](O1)[C@H](NC(=O)C(F)(F)F)[C@@H](O)[C@H]2O [MIF-AcF3-3] | 
 | evidencing internalization in lysosomes | up to 20 ng/ml | substantial decrease in huMIF levels | CC(=O)N[C@H]1[C@H](OCCOCCOCCNC(=O)CCOCC(COCCC(=O)NCCOCCOCCO[C@@H]2O[C@H](CO)[C@H](O)[C@H](O)[C@H]2NC(C)=O)(COCCC(=O)NCCOCCOCCO[C@@H]2O[C@H](CO)[C@H](O)[C@H](O)[C@H]2NC(C)=O)NC(=O)CNC(=O)CCCOc2ccc3nc(-c4cn(-c5ccc(O)c(F)c5)nn4)ccc3c2)O[C@H](CO)[C@H](O)[C@@H]1O [MIF-GN3] | showed a slowing of tumor growth
